The text below walks through data of patent US6780418B1, “Reagents and immunoassay for the detection and quantitative determination of mycothiol and precursors thereof” (The Regents of the University of California, priority 1997, dated 2004).

The subject of data set [1] is anti-mycothiol antibody. In words: ELISA of Example 4: thiol bound to maleimide-activated BSA, detected with affinity-purified anti-MSH antibody. In kind it is binding, rabbit. To be noted: for ELISA result (recognition by the anti-mycothiol antibody): thiol at the 10 pmol level. As to the method:
Known amounts of pure MSH (typically from 0 to 1 pmol/well) were reacted with maleimide-activated BSA (Pierce); maleimide activation levels were 16-19 mol maleimide per mol BSA. The maleimide-activated BSA was reconstituted to 10 mg/ml and this stock solution stored at −70° C. until needed. The stock solution was diluted to a working concentration of 5 ng/μl just before use and kept chilled on ice. MSH from the concentrated stock solution in 0.1% TFA was diluted into TBS (Tris-buffered saline: 0.1 M Tris, pH 7.3, 0.15 M NaCl, 0.04% NaN3) on ice and the diluted samples (40 μl per well) immediately added to the maleimide-activated BSA (60 μl per well). A “zero” standard consisted of TBS in place of an MSH solution. In practice, 168 μl of thiol standard were added to 252 μl of maleimide-activated BSA solution. Samples of unknown thiol content were reacted with maleimide-activated BSA in the same manner, providing a small excess volume for pipetting of quadruplicate samples of 100 μl per well. After 2-hour incubation at room temperature, the thiol-BSA samples were aliquoted (100 μl per well) into Immulon-4 microplate wells and allowed to bind overnight at 4° C. Unbound protein was removed by gentle aspiration with mild vacuum and the wells blocked for 2 hours at room temperature with 1% v/v fish-skin gelatin in TBS. The wells were drained, washed once with TBST (TBS plus 0.05% Tween-20), and drained. Washes involved filling wells to the top with wash buffer followed by gentle aspiration to drain the wells. Primary antibody (affinity-purified anti-MSH, 100 μl per well) was added and the plate incubated for 4 hours at room temperature. The wells were drained, washed twice with TBST, and drained. Secondary antibody (goat anti-rabbit [whole IgG] F(ab′)2 fragments conjugated to bovine intestinal alkaline phosphatase, 100 μl per well) was added and the plate incubated for 1 hour at room temperature. The wells were drained, washed twice with TBST, twice with TBS, and drained. The alkaline phosphatase substrate (3.8 mM p-nitrophenylphosphate in 0.2 M Tris, pH 9.8, 200 μl per well) was added and the plate incubated 30 minutes at room temperature. The reaction was quenched by addition of 50 μl per well stop solution (4 N NaOH). The plate was read at 405 nm on a microplate reader (Model EL311, Bio-Tek Instruments) that was programmed to automatically subtract blank values read from wells that received only the blocking agent, wash solutions, p-nitrophenyl phosphate, and stop solution.
Since reaction of typical cellular constituents with maleimide-BSA is largely limited to thiols, it was considered important to ascertain whether any typical biological thiols would produce false-positive assay results.
In order to test whether the anti-mycothiol antibody recognizes component parts of the mycothiol molecule we also tested the ELISA on N-acetyl-L-cysteine, L-cysteinyl-glucosamine, (2-L-cysteinyl)amido-2-deoxy-α-D-glucopyranose), and N-acetyl-L-cysteinyl-glucosamine (2-N-acetyl-L-cysteinyl)amido-2-deoxy-α-D-glucopyranose).
Background: An ELISA detects its analyte on a solid surface through an enzyme-linked reagent.

The target in data set [2] is ATP-dependent ligase activity (Mycolicibacterium smegmatis, UniProt A0QZY0). The experiment in a line: Assay of ATP-dependent ligase activity with GlcN-Ins plus Cys/AcCys in cell extract supernatant. In kind it is biochemical, M. smegmatis. To be noted: for MSH content / Cys-GlcN-Ins concentration: 100 μM substrate, 50 μM GlcN-Ins, 1 mM ATP; for Cys-GlcN-Ins concentration: pH 7.5, 60 min.

The format of data set [3] is physicochemical. The protocol: The crude extract was purified by reversed-phase HPLC on a preparative C 18 column, 25 mm×250 mm (Vydac) by isocratic elution with 0.1% trifluoracetic acid (TFA) in ultrapure water at a flow rate of 10 ml/min. Under these conditions MSH eluted as the free thiol at 8 minutes and as its disulfide (MSSM) at 12 minutes. Thiol concentration was determined by titration with DTNB. Purified MSH was stored as a concentrated (0.11 M) stock solution in 0.1% TFA (aqueous), frozen at −70° C.
To produce biotinylated MSH suitable for use as a standard, the following procedure was carried out: 5.0 μL of 3.7 mM pure MSH in 0.1% TFA was added to 12.3 μL 1.5 mM MPB in DMSO/acetonitrile/100 mM phosphate buffer, pH 7.0 (1:4:5). The mixture was allowed to react 1 hour at room temperature. To determine the extent of biotinylation, unreacted MSH was measured by titration with DTNB. The standard was stored in 1.0 μL aliquots frozen at −70° C. For use in ELISA analyses, the standard was diluted to a concentration of 1.0 μM in Tris-buffered saline, pH 7.3, containing 0.04% w/v sodium azide, 0.05% v/v Tween 20 and 0.1% w/v BSA (TBSTB); this solution was stable for several (>6) months when stored refrigerated as indicated by consistency of ELISA measurements.

Data set [4] has as its system M. smegmatis mc^2155. The experiment in a line: Effect of nutrient supplementation upon mycothiol intermediate levels and growth. In kind it is cell-based, Mycobacterium smegmatis. As to the method: To test whether an increase in cellular Ins content would influence the levels of MSH or potential MSH intermediates, we examined M. smegmatis mc^2155 incubated with Ins. We initially tested Ins uptake by adding 37 μM ^14C-inositol to a culture at A600=1.0 and determining the loss of radiolabel from the medium and its appearance in cells. After 2.5 h, 77% of the counts had been lost from the medium to the cells, showing that M. smegmatis efficiently imports inositol. Next we harvested cells after growth to mid log phase, resuspended them at A600=1.05 in Middlebrook 7H9 media with glucose and 1 MM Ins at 37° C., and took samples for analysis at 0, 0.5 and 2.5 h (FIG. 17A).
To test whether changes in cellular Cys levels would influence MSH or MSH intermediates, we incubated cells in medium containing 10 mM AcCys. Since AcCys is readily taken up by passive diffusion we expected this to produce markedly elevated levels of cellular AcCys and, through deacylation, Cys. […] The Cys-GlcN-Ins content was elevated 20-fold over normal immediately after the start of incubation but then fell a factor of 70 over the next 2.5 h. Least affected was the MSH content which was elevated ˜40% after 2.5 h.

ATP-dependent ligase activity, sequence (A0QZY0 whole entry): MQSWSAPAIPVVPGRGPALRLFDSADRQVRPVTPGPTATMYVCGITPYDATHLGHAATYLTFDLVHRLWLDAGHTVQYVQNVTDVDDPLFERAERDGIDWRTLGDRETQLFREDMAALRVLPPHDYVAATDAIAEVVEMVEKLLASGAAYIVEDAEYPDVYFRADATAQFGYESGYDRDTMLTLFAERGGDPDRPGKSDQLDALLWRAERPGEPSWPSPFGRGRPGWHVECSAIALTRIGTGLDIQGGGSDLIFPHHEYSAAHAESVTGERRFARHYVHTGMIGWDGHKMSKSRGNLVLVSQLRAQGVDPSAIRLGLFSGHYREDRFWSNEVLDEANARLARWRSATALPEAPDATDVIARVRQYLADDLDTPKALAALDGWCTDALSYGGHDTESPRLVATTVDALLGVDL

`N[C@@H](CS)C(=O)O` [Cys, L-cysteine]: in data set [1], the “ELISA result (recognition by the anti-mycothiol antibody)” value (from here on “ELISA result”) is reported as “negative”. The MSH content in data set [2] (0 min) was 15 µM; in data set [2] (60 min), 13 µM. Further, the Cys-GlcN-Ins concentration in data set [2] was 26 µM.

On to `CC(C)(CO)[C@@H](O)C(=O)NCCC(=O)NCCS` [pantetheine, reference compound], for which the “ELISA result” value in data set [1] was “negative”.

Regarding `CC(=O)N[C@@H](CS)C(=O)N[C@@H]1[C@@H](O)[C@H](O)[C@@H](CO)O[C@@H]1O` [AcCys-GlcN, 2-(N-acetyl-L-cysteinyl)amido-2-deoxy-α-d-glucopyranoside], the “sensitivity of the assay relative to that for MSH” value in data set [1] (of that for MSH) was “about 4%”. In addition, the “ELISA result” value in data set [1] is “positive”.

`CC(=O)N[C@@H](CS)C(=O)N[C@H]1[C@@H](OC2[C@H](O)[C@H](O)C(O)[C@H](O)[C@H]2O)O[C@H](CO)[C@@H](O)[C@@H]1O` (stereo partly drawn) [MSH, 1-D-myo-inosityl-2-(N-acetyl-L-cysteinyl)amido-2-deoxy-α-D-glucopyranoside]: in data set [3], the stability on storage result is “stable as the free thiol for many months”.

^14C-inositol [reference compound]: the “counts lost from the medium to the cells (uptake)” value in data set [4] (37 μM, culture at A600=1.0, after 2.5 h) is reported as 77%.

Take `O[C@H]1[C@H](O)[C@@H](O)[C@H](O)[C@@H](O)[C@H]1O` [Ins, myo-inositol]: in data set [4] (1 mM Ins, 37° C., 0 to 2.5 h), the “MSH and H2S levels” value is “did not change to a significant extent”. The “GlcN-Ins content relative to normal” value in data set [4] (1 mM Ins, 37° C., at 0.5 h) is given as “about half normal”; in data set [4] (1 mM Ins, 37° C., at 2.5 h), “returning to normal”; in data set [4] (1 mM Ins, 37° C., initially (0 h)), “more than 3 fold”. Besides, in data set [4] (1 mM Ins, over the 2.5 h incubation), the “increase of A600 value” came out at 40%.

For `N[C@@H](CS)C(=O)N[C@@H]1[C@@H](O)[C@H](O)[C@@H](CO)O[C@@H]1O` [Cys-GlcN, 2-(L-cysteinyl)amido-2-deoxy-α-D-glucopyranoside], the “ELISA result” value in data set [1] was “negative”.

With `CC(C)(COP(=O)(O)OP(=O)(O)OC[C@H]1O[C@@H](n2cnc3c(N)ncnc32)[C@H](O)[C@@H]1OP(=O)(O)O)[C@@H](O)C(=O)NCCC(=O)NCCS` [coenzyme A, reference compound], in data set [1], the “ELISA result” value is reported as “negative”.

`N[C@@H](CCC(=O)N[C@@H](CS)C(=O)NCC(=O)O)C(=O)O` [glutathione, reference compound]: the “ELISA result” value in data set [1] is “negative”.

As to `CC(=O)N[C@@H](CS)C(=O)O` [AcCys, N-acetyl-cysteine], the “ELISA result” value in data set [1] is “negative”. Besides, the effect on growth result in data set [4] (10 mM AcCys, 2.5 h) is given as “significantly inhibits growth”. Also, the MSH content elevated in data set [4] (10 mM AcCys, after 2.5 h) was ~40%. Further, the “Cys-GlcN-Ins content elevated over normal” value in data set [4] (10 mM AcCys, immediately after the start of incubation) was 20 fold. The “change of A600 value” in data set [4] (10 mM AcCys, over the 2.5 h incubation period) is 5%. Besides, the “fall of Cys-GlcN-Ins content (factor)” value in data set [4] (10 mM AcCys, over the next 2.5 h) was determined as 70. Besides, in data set [4] (medium containing 10 mM AcCys), the Cys level increased amounted to 50 fold, the H2S level entry is “roughly doubled”, the “cellular AcCys level elevated over the normal level” value is 1000 fold and the “decrease in GlcN-Ins content” value is recorded as 5- to 10 fold. Further, in data set [2] (100 μM AcCys, by 60 min), the “[Cys]/[AcCys]” value is recorded as ~3. The MSH content in data set [2] (60 min) amounted to 15 µM. The Cys-GlcN-Ins concentration in data set [2] turned out to be 20 µM.
